Our source for the remaining binding values is publication PMC4279382, “Antitumor activity of S116836, a novel tyrosine kinase inhibitor, against imatinib-resistant FIP1L1-PDGFRα-expressing cells” (Oncotarget, 2014).

Common to all, as to assay: KINOMEscan competition binding, single concentration
What all share (conditions): read-out: % Ctrl @ 100nM

Test [1] addresses T1, ABL1-nonphosphorylated (Homo sapiens, UniProt P00519).
T1 construct: KINOMEscan (Ambit) panel kinase, nonphosphorylated form
An excerpt:
(§1) KINOMEscan competition binding, single concentration on ABL1-nonphosphorylated

For test [2], the target named is T2, ABL1-nonphosphorylated (Homo sapiens, UniProt P00519, T315I).
T2 construct: KINOMEscan (Ambit) panel kinase, nonphosphorylated form
From the text: as §1

The target of the next test is T3, BLK (Homo sapiens, UniProt P51451).
T3 construct: KINOMEscan (Ambit) panel kinase
An excerpt: KINOMEscan competition binding, single concentration on BLK

A further test has as its target T4, LYN (Homo sapiens, UniProt P07948).
T4 construct: KINOMEscan (Ambit) panel kinase
An excerpt:
KINOMEscan competition binding, single concentration on LYN

A further test concerns the target T5, FLT3 (Homo sapiens, UniProt P36888).
T5 construct: KINOMEscan (Ambit) panel kinase
T5 sequence (P36888 27-993): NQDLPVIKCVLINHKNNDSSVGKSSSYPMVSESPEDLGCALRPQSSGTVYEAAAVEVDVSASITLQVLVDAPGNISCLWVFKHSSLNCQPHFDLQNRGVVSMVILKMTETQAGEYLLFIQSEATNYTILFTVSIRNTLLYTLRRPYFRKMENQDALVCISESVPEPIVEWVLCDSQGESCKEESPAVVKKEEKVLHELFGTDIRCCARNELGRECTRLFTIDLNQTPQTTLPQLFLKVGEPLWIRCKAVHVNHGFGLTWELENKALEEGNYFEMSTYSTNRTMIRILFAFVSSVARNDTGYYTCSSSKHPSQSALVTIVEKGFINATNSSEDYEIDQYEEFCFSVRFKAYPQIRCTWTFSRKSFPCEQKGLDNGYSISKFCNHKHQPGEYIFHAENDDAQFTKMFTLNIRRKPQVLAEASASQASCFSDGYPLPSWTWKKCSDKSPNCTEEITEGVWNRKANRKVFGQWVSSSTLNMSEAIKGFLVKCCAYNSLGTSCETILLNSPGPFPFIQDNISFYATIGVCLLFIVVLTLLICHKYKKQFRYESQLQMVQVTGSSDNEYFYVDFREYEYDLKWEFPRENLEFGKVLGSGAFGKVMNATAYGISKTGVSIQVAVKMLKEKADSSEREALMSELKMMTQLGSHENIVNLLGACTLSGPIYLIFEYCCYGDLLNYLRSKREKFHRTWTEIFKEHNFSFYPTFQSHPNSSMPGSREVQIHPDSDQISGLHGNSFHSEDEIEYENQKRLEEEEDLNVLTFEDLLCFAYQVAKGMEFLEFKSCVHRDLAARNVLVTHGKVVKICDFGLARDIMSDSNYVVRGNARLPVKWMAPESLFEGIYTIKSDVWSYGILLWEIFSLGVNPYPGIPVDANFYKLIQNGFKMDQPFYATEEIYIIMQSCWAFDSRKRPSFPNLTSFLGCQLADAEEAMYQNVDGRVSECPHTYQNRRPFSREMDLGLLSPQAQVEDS
An excerpt: KINOMEscan competition binding, single concentration on FLT3

A further test concerns the target T6, KIT (Homo sapiens, UniProt P10721).
T6 construct: KINOMEscan (Ambit) panel kinase
An excerpt:
KINOMEscan competition binding, single concentration on KIT

For a further test, the target named is T7, PLK1 (Homo sapiens, UniProt P53350).
T7 construct: KINOMEscan (Ambit) panel kinase
An excerpt: KINOMEscan competition binding, single concentration on PLK1

A further test deals with T8, PDGFRβ (Homo sapiens, UniProt P09619).
T8 construct: gene PDGFRB; KINOMEscan (Ambit) panel kinase
An excerpt:
KINOMEscan competition binding, single concentration on PDGFRβ

A further test deals with T9, SRC (Homo sapiens, UniProt P12931).
T9 construct: KINOMEscan (Ambit) panel kinase
An excerpt:
KINOMEscan competition binding, single concentration on SRC

The target in the next test is T10, CDK2 (Homo sapiens, UniProt P24941).
T10 construct: KINOMEscan (Ambit) panel kinase; no cyclin named
An excerpt: KINOMEscan competition binding, single concentration on CDK2

A further test has as its target T11, HCK (Homo sapiens, UniProt P08631).
T11 construct: KINOMEscan (Ambit) panel kinase
An excerpt: KINOMEscan competition binding, single concentration on HCK

The next test has as its target T12, PDGFRα (Homo sapiens, UniProt P16234).
T12 construct: gene PDGFRA; KINOMEscan (Ambit) panel kinase
An excerpt:
KINOMEscan competition binding, single concentration on PDGFRα

The next test concerns the target T13, TIE2 (Homo sapiens, UniProt Q02763).
T13 construct: gene TEK; KINOMEscan (Ambit) panel kinase
An excerpt: KINOMEscan competition binding, single concentration on TIE2

The target of the next test is T14, LCK (Homo sapiens, UniProt P06239).
T14 construct: KINOMEscan (Ambit) panel kinase
An excerpt:
KINOMEscan competition binding, single concentration on LCK

The structures appear in SMILES notation.

T11 sequence (P08631 2-526): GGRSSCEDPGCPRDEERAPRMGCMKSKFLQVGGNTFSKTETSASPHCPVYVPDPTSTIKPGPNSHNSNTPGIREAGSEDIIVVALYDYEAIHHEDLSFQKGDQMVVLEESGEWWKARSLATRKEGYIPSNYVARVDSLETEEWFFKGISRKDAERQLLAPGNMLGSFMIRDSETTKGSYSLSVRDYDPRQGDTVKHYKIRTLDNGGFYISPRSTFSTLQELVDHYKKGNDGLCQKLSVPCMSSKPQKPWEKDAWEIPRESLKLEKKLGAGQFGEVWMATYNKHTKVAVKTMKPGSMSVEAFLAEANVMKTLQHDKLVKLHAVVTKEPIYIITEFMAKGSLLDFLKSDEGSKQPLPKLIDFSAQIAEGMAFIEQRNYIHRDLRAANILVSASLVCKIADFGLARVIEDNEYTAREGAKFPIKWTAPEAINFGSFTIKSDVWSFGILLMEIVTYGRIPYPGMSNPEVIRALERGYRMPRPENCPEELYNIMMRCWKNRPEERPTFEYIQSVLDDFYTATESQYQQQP
T12 sequence (P16234 24-1089): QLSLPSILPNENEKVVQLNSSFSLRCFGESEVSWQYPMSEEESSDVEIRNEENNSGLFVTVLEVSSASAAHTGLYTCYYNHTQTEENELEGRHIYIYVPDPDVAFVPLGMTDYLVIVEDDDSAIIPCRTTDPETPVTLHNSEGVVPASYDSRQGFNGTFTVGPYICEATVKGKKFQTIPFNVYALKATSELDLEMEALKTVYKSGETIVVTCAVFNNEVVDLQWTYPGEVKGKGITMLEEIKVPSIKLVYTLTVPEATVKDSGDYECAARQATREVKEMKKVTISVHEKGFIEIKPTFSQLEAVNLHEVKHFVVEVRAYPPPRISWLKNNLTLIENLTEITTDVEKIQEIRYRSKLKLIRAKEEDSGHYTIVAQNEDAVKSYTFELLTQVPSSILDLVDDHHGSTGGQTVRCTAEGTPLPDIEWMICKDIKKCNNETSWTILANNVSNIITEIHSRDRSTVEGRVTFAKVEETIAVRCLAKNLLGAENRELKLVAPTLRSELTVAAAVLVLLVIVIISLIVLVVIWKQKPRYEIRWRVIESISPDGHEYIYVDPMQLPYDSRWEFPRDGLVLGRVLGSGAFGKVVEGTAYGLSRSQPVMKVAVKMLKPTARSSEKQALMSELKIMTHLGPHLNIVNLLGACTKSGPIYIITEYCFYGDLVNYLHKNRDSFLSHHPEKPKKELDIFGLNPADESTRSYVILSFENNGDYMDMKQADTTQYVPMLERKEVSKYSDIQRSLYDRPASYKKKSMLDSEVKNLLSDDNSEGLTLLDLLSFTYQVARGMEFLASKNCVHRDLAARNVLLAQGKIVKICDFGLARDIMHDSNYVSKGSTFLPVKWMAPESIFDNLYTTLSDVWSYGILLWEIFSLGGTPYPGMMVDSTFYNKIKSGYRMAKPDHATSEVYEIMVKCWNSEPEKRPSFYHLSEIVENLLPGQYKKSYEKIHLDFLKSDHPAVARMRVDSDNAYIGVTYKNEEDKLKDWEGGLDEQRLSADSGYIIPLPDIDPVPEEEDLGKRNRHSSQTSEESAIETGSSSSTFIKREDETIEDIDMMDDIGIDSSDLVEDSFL
T8 sequence (P09619 33-1106): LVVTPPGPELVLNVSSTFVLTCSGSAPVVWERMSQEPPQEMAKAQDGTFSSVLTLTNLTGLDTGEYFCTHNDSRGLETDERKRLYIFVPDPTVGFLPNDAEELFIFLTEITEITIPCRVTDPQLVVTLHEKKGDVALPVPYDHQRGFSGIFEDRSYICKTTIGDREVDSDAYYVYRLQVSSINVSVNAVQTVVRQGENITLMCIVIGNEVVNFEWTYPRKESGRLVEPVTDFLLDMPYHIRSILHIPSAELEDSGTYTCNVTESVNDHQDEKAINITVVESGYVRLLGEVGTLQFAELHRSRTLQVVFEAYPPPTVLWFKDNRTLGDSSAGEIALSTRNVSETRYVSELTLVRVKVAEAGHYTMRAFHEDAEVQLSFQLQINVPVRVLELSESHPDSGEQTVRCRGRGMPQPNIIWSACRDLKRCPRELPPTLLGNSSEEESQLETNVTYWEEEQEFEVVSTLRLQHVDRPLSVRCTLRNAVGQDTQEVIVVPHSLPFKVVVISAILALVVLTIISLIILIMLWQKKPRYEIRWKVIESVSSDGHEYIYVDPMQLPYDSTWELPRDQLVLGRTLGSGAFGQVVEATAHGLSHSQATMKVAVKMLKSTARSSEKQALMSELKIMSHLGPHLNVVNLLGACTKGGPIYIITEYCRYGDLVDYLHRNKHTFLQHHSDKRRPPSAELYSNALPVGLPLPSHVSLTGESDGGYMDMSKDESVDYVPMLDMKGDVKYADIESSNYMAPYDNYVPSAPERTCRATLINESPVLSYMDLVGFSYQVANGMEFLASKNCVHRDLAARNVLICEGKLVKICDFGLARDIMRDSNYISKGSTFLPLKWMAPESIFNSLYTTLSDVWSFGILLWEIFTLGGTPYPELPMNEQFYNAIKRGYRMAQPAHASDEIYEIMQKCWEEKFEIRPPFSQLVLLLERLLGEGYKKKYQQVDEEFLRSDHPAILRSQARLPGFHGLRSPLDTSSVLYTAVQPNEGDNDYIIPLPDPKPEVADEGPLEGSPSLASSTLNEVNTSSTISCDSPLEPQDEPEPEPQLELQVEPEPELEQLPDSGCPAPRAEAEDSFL
T14 sequence (P06239 2-509): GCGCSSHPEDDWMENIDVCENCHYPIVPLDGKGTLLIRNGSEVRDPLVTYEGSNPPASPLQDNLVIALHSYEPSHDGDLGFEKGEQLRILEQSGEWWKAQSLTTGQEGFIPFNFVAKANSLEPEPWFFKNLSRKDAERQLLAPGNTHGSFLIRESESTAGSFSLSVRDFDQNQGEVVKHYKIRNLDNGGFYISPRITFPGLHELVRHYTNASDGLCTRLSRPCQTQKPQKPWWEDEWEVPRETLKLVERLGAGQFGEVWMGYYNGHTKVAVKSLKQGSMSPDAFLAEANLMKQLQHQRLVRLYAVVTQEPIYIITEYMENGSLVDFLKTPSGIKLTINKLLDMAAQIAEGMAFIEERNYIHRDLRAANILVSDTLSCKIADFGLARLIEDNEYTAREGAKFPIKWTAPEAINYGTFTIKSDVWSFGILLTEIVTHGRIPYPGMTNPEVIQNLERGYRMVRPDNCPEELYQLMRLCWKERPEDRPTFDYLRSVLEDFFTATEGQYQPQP
T13 sequence (Q02763 23-1124): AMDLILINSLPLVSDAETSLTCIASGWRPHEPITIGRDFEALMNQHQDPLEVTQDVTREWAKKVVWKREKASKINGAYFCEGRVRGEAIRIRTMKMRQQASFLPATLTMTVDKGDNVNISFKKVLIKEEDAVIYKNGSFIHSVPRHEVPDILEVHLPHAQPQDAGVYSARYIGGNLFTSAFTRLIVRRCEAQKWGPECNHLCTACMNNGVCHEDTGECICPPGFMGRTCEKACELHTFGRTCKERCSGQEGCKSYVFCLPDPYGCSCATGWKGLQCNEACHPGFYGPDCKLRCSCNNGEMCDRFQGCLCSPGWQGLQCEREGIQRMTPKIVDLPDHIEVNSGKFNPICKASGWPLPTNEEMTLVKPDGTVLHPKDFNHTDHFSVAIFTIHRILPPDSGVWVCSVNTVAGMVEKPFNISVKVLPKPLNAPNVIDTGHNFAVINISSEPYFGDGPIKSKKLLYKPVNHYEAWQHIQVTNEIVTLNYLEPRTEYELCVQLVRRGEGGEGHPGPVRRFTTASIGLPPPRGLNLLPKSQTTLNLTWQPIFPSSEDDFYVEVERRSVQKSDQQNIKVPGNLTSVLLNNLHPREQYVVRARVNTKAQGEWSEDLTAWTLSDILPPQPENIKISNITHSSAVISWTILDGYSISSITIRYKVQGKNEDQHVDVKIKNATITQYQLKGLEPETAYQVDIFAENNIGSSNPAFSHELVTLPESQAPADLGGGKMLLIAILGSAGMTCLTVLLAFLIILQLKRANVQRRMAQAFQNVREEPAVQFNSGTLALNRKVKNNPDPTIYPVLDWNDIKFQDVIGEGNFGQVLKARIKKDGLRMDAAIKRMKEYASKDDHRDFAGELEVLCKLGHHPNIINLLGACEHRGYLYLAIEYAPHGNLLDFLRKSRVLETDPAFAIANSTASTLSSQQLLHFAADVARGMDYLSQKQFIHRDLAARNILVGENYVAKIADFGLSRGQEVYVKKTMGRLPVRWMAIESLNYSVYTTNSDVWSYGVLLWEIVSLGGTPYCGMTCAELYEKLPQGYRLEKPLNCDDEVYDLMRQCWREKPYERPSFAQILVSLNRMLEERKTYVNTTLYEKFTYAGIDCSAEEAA
T3 sequence (P51451 2-505): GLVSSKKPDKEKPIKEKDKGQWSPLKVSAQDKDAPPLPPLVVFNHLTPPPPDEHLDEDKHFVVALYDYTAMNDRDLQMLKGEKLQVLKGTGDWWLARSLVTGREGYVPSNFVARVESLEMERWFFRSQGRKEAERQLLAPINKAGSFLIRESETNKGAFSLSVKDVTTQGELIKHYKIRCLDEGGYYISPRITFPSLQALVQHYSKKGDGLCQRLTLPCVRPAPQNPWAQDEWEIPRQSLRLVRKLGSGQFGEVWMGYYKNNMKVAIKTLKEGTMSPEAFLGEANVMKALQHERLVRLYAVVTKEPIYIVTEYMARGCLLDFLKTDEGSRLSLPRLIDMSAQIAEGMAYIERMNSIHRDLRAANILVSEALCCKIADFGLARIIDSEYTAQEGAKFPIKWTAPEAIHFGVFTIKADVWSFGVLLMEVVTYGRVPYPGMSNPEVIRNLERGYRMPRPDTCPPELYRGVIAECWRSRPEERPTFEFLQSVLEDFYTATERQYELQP

Turning to `Cc1ccc(C(=O)Nc2cc(-n3ccnc3)cc(C(F)(F)F)c2)cc1C#Cc1cnc(NC2CC2)nc1` [S116836], the remaining binding at 0.1 µM worked out at 18% on ABL1-nonphosphorylated [1]; 20% at ABL1-nonphosphorylated [2]; 10% at BLK; 16% at LYN; 1.8% at FLT3; 6.8% on KIT. The remaining binding at 0.1 µM at PLK1 stood at 100%; at PDGFRβ it was 3.3%; on SRC, 33%; on CDK2, 99%; at HCK, 6.2%; on PDGFRα, 26%. Further, the remaining binding at 0.1 µM at TIE2 was 0.85%; at LCK it was 3.4%.
